Assay results from patent US6878690B2, “Compounds and methods” (PharmAxis Pty Ltd., priority 2000, dated 2005).
Values joined by “and” are separate entries in the source; they are usually repeats but may differ in a detail not shown here. Equal entries are not always repeated.

Experiments:
[1] = system: passively transferred EAE; assay: Passively transferred EAE induced with encephalitogenic MBP-specific T cell line (Example 23); type: in vivo, Lewis rats
Experimental: In order to study the effect of the agents of the present invention in vivo on a disease caused by T lymphocyte migration into a specific tissue, experiments were performed in the Lewis rat model of passively transferred EAE. Here, myelin basic protein (MBP)-specific T lymphocyte cell lines were generated from the draining lymph nodes of Lewis rats that had been immunised with MBP in Freund's complete adjuvant essentially according to the method of Ben-Nun et al. (1981) as described in Example 8. Thus, in this manner, donor T lymphocytes were generated from female 10 to 12 week old Lewis rats weighing 150 to 200 g. These rats were injected intradermally in a footpad of each hind foot with an emulsion of Guinea pig myelin basic protein (MBP; prepared according to the method of Deibler et al., 1972; incorporated herein by reference) in Freund's complete adjuvant (0.05 ml). The adjuvant emulsion was prepared by emulsifying equal volumes of a mixture of light mineral oil (Sigma) and normal saline containing Guinea pig myelin basic protein (0.5 mg/ml) and Mycobacterium butyricum (4 mg/ml; Difco). Thus, the total dose per rat was 50 micrograms of MBP and 400 micrograms of M. butyricum. Approximately 11 days following injection, the rats were euthanased and the draining lymph nodes (popliteal and inguinal) removed aseptically by blunt dissection and placed into mixed lymphocyte culture medium. This medium was prepared in the normal fashion from Dulbecco's Modified Eagle's Medium (DMEM; GIBCO, Grand Island, N.Y.) supplemented with glucose, folic acid, L-asparagine, sodium bicarbonate, L-glutamine, sodium pyruvate, HEPES, 2-mercaptoethanol (5×10^−5 M), penicillin, streptomycin, neomycin, and 2% fetal calf serum. A single cell suspension was prepared from the lymph nodes in the usual manner by gently pushing the nodes through a stainless steel screen. The cells were washed twice in the culture medium and following this procedure, any red blood cells were lysed in the usual manner by treating with a solution of ammonium chloride, EDTA and sodium hydrogen carbonate (pH 7.3) and the preparation strained (Falcon 2350 cell strainer). The cells were washed again in the lymphocyte culture medium. All cell preparative steps were performed on ice. These cells were cultured asceptically for 72 hours at 37° C. in a humidified atmosphere containing 7.5% carbon dioxide at a concentration of 5 million cells per milliliter in the presence of MBP (0.06 mg/ml). The cells were collected and the lymphoblasts were isolated by centrifugation on a Ficoll (Pharmacia, Uppsala, Sweden) gradient in an identical manner to that described by Ben Nun et al. (1981). The fraction containing ≧90% lymphoblasts was cultured and propagated in Eagle's medium supplemented with 15% of a concanavalin A-stimulated lymphocyte supernatant to provide growth factors, 10% fetal calf serum, nonessential amino acids (Bio-Lab, Jerusalem, Israel); sodium pyruvate, 2-mercapto ethanol and antibiotics without added antigen. The cells were plated in 100 mm petri dishes at a concentration of 0.2 million cells/ml and replated every 3 or 4 days. Prior to transfer into Lewis recipients, the cells were restimulated in the presence of MBP (0.01 mg/ml) and irradiated syngeneic thymocytes for 4 days.
These cells were highly encephalitogenic sine as few as 500,000 cells were capable of inducing disease when injected into naïve Lewis rats. Thus, in a typical experiment a group of 5 female Lewis rats, approximately 9 weeks old, weighing 110±15 grams were anesthetised with diethyl ether and implanted with mini-osmotic pumps (Alzet 2002, Alza Corp., Palo Alto Calif., USA) containing phosphoric acid mono-(6-propyl-3,4,5-trihydroxy-tetrahydro-pyran-2-ylmethyl) ester mono sodium salt dissolved in normal saline at a concentration that delivered the drug at a rate of 45 mg/kg/rat/day. […]

[2] = system: passively transferred EAE; assay: Passively transferred EAE induced with concanavalin A stimulated spleen lymphoblasts (Example 24); type: in vivo, Lewis rats; parameters: key to Clinical score - Treated, Mean: 0 = asymptomatic to 5 = hind limb paralysis; details: 62 mg/kg/day subcutaneously; for Clinical score - Treated, Mean: group mean; for Clinical score - Treated: individual rats, scale 0 to 5
Experimental: In a similar type of experiment outlined in Example 20, and in order to study the effect of the agents of the present invention in vivo on a disease caused by T lymphocyte migration into a specific tissue, further experiments were performed in a Lewis rat model of passively transferred EAE. Here, myelin basic protein (MBP)-specific T lymphocytes were generated in spleens of Lewis rats that had been immunised with guinea pig MBP in Freund's complete adjuvant. Thus, in this manner donor T lymphocytes were generated from male 12-20 week old Lewis rats weighing 200 to 250 g. These rats were injected intradermally in a footpad of each hind foot with an emulsion of guinea pig myelin basic protein (MBP; prepared according to the method of Deibler et al., 1972; incorporated herein by reference) in Freund's complete adjuvant (0.1 ml). The adjuvant emulsion was prepared by emulsifying equal volumes of a mixture of 85% light mineral oil (0.8417 g/mL (Sigma)) plus 15% mannide monooleate (Sigma) containing Mycobacterium butyricum (4 mg/ml; Difco) and normal saline containing guinea pig myelin basic protein (0.25 mg/ml). Thus, the total dose per rat was 25 micrograms of MBP and 400 micrograms of M. butyricum. Ten days following injection, the rats were euthanased and the spleens removed aseptically by blunt dissection and placed into mixed lymphocyte culture medium. This medium was prepared in the normal fashion from Dulbecco's Modified Eagle's Medium (DMEM; GIBCO, Grand Island, N.Y.) supplemented with glucose (4 g/L), folic acid (6 mg/L), L-asparagine (36 mg/L), sodium bicarbonate (2 g/L), L-arginine (116 mg/L), L-glutamine (2 mM), sodium pyruvate (1 mM), HEPES (10 mM), 2-mercaptoethanol (5×10^−5 M), penicillin, streptomycin, neomycin, and 10% fetal calf serum. A single cell suspension was prepared from the spleens in the usual manner by gently pushing them through a stainless steel screen. The cells were washed twice and cultured asceptically for 72 hours at 37° C. in a humidified atmosphere containing 5% carbon dioxide at a concentration of 2 million cells per milliliter in the presence of concanavalin A (2 microgram/mL). The cells were collected and washed twice in Hanks balanced salt solution. Cells were resuspended in Hanks balanced salt solution and each recipient animal (10-12 weeks old female Lewis rats; 160-180 g) received 40-42.5 million lymphoblasts by lateral tail vein injection in a volume of 0.5 ml.
In a typical experiment 4-5 recipient rats were anesthetised with diethyl ether and implanted with mini-osmotic pumps (Alzet 2001, Alza Corp., Palo Alto Calif., USA) containing the test compound. A second group of 4 animals, the control group, under ether anesthesia, were implanted with Alzet 2001 pumps containing normal saline. Mini-osmotic pumps were implanted three days after cell transfer. Disease severity (clinical score) was scored on an arbitrary scale of severity ranging from 0 to 5 as follows: 0, asymptomatic; 1, flaccid distal half of tail; 2, entire tail flaccid; 3, ataxia, difficulty in righting reflex; 4, hind limb weakness; 5, hind limb paralysis. Mean maximum clinical scores were calculated and the disease index (DI) for each group was calculated as described in Example 20. The results of these experiments are outlined in Tables 6, 7 and 8.

[3] = system: DTH response to 2,4-dinitrofluorobenzene (DNFB); assay: Delayed-type hypersensitivity (DTH) response to DNFB, ear swelling; type: in vivo, Balb/C mice
Text: In the present Example, a murine model of Type IV hypersensitivity or delayed-type hypersensitivity (DTH) response to cutaneous contact with the chemical hapten 2,4-dinitrofluorobenzene (DNFB) (Aldrich Chemical Company Inc, USA) was used as a model to measure the anti-inflammatory effects of compounds of the present invention. Specific pathogen-free 8-12 week old female Balb/C mice, weighing 19-21 g, were sensitised in a similar manner to that described by Klimuk et al., (Klimuk et al., 1999) by applying a solution of DNFB (0.5% in acetone:olive oil (4:1, v/v); 30 microliters,) onto a 2 cm^2 shaved area of the abdomen. After 7 days, the animals were anesthetised with diethyl ether and 8 microliters of DNFB (0.35% in acetone:olive oil (4:1, v/v) was applied to the dorsal and ventral surfaces of the right pinna. Prior to regaining consciousness, the mice were implanted intraperitoneally with Alzet 2001 mini-osmotic pumps (Alza Corp., Palo Alto Calif., USA) containing phosphoric acid mono-[6-(3-hexyloxy-propyl)-3,4,5-trihydroxy-tetrahydro-pyran-2-ylmethyl] ester, sodium salt in normal saline. The dose delivered was 50 mg/kg/day. Control animals for this group received saline delivered in identical mini-osmotic pumps. A second experimental group of mice received phosphoric acid mono-[3-(3,4,5-trihydroxy-6-phosphonooxymethyl-tetrahydro-pyran-2-yl)-propyl] ester disodium salt via one-week delivery Alzet 2001 mini-osmotic pumps implanted intraperitoneally. This compound was delivered at a dose of 40 mg/kg/day. Control animals for this group received saline delivered in identical mini-osmotic pumps. In a third experiment a separate group of mice received (3,4,5-trihydroxy-6-phosphonooxymethyl-tetrahydro-pyran-2-yl)-acetic acid disodium salt via one-week delivery Alzet 2001 mini-osmotic pumps that were placed intraperitoneally. This compound was delivered at 45 mg/kg/day. The control group for this experiment received identical mini-osmotic pumps containing normal saline. In a fourth experiment a group of mice received 3-phenyl-2-[2-(3,4,5-trihydroxy-6-phosphonooxymethyl-tetrahydro-pyran-2-yl)-acetylamino]-propionic acid monosodium salt via one-week delivery Alzet 2001 mini-osmotic pumps that were placed subcutaneously. This compound was delivered at 62 mg/kg/day. The control group for this experiment received identical mini-osmotic pumps containing normal saline. In a fifth experiment a group of mice received hexanoic acid 3-(3,4,5-trihydroxy-6-phosphonooxymethyl-tetrahydro-pyran-2-yl)-propyl ester sodium salt via one-week delivery Alzet 2001 mini-osmotic pumps that were placed subcutaneously. This compound was delivered at 40 mg/kg/day. The control group for this experiment received identical mini-osmotic pumps containing normal saline.
Twenty-four hours after challenge the mice were lightly anesthetised with diethyl ether and the thickness of the left and right pinnae measured (in millimeters) using a dial gauge micrometer (Interapid, Switzerland). Care was taken to measure only the outer two thirds of the ear. The increase in ear thickness initiated by the DTH response was determined by subtracting the measurement of the left ear (untreated) from the right ear (challenged).
In Table 4, values in the columns labeled Left and Right are measurements of ear thickness in millimeters of the control and challenged ears respectively.

CCCC1OC(COP(=O)([O-])O)C(O)C(O)C1O.[Na+] (centres unmarked) [phosphoric acid mono-(6-propyl-3,4,5-trihydroxy-tetrahydro-pyran-2-ylmethyl) ester mono sodium salt]
drug-treated animals that developed disease ([1]; 45 mg/kg/rat/day, control group 5/5): 3/5
lesions per section in the most affected animal ([1]; day 6 post lymphocyte transfer, histology): no more than 8 lesions per section
average lesions (per section) in spinal cord ([1]; day 6 post lymphocyte transfer, histology, control approximately 15 lesions/section): 3.5 lesions
Mean maximum clinical score ([1]; treated group, 45 mg/kg/rat/day, control group 2.0): 1.0
disease index (DI) ([1]; treated group, 45 mg/kg/rat/day, control group DI 160): 40

O=C(CC1OC(COP(=O)(O)O)C(O)C(O)C1O)NC(Cc1ccccc1)C(=O)[O-].[Na+] (centres unmarked) [3-phenyl-2-[2-(3,4,5-trihydroxy-6-phosphonooxymethyl-tetrahydro-pyran-2-yl)-acetylamino]-propionic acid monosodium salt]
Clinical score - Treated, Mean ([2]; day 4): 0
Clinical score - Treated ([2]; day 4): 0
Clinical score - Treated, Mean ([2]; day 5): 0.8
Clinical score - Treated ([2]; day 5, monosodium salt, 62 mg/kg/day): 0 (2×) and 1 (2×) and 2
Clinical score - Treated, Mean ([2]; day 6): 0.9
Clinical score - Treated ([2]; day 6, monosodium salt, 62 mg/kg/day): 0 and 0.5 and 1 (2×) and 2
Clinical score - Treated, Mean ([2]; day 7): 0.7
Clinical score - Treated ([2]; day 7, monosodium salt, 62 mg/kg/day): 0 (2×) and 0.5 and 1 and 2
Clinical score - Treated, Mean ([2]; day 8): 0.7
Clinical score - Treated ([2]; day 8, monosodium salt, 62 mg/kg/day): 0 (2×) and 1 (2×) and 1.5
Clinical score - Treated, Mean ([2]; day 9): 0.4
Clinical score - Treated ([2]; day 9, monosodium salt, 62 mg/kg/day): 0 (3×) and 0.5 and 1
Clinical score - Treated, Mean ([2]; day 10): 0.2
Clinical score - Treated ([2]; day 10, monosodium salt, 62 mg/kg/day): 0 (3×) and 0.5 (2×)
Mean maximum clinical score ([2]; treated group, control 1.5): clinical score 1.0
DI (disease index) ([2]; treated group, control DI 14.1): DI - 8.13 Mean maximum
Mean percentage decrease in ear swelling in treated animals ([3]; 62 mg/kg/day subcutaneously, versus saline controls): Mean percentage decrease in ear swelling in treated animals: 49.3%
Mean Difference, Treated ([3]; group mean, 62 mg/kg/day subcutaneously, saline control mean 0.134): 0.068 millimeters
Difference (right minus left ear), Treated ([3]; individual mice, 62 mg/kg/day, mini-osmotic pump subcutaneously, 24 hours after challenge, monosodium salt): 0.11 millimeters and 0.09 millimeters and 0.06 millimeters and 0.04 millimeters (2×)
Right ear thickness, Treated ([3]; individual mice, challenged ear, 62 mg/kg/day, mini-osmotic pump subcutaneously, 24 hours after challenge, monosodium salt): 0.33 millimeters and 0.31 millimeters and 0.29 millimeters and 0.25 millimeters (2×)
Left ear thickness, Treated ([3]; individual mice, control (unchallenged) ear, 62 mg/kg/day, mini-osmotic pump subcutaneously, 24 hours after challenge, monosodium salt): 0.22 millimeters (2×) and 0.23 millimeters and 0.21 millimeters (2×)
